Laboratory results taken from PMC8536124 (International Journal of Molecular Sciences, 2021).

Assays:
HL-60(TB) = experiment: NCI-60 screening (SRB); format: cell-based, human
Breast cancer = experiment: NCI-60 screening (SRB), subpanel; format: cell-based
How it was run: (§1)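 Cell growth was estimated by sulforhodamine B protein binding after a 48 h exposure. Negative growth values denote cell kill. Selectivity index is full-panel MG_MID60 divided by subpanel MG_MID, both in μM.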

Colon Cancer = experiment: NCI-60 screening (SRB), subpanel; format: cell-based
How it was run: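 Run per NCI protocol: cells exposed to compound for 48 h, growth measured spectrophotometrically by sulforhodamine B protein staining versus untreated controls. GI50, TGI and LC50 derived per cell line; subpanel MG_MID averages these, insensitive lines counted at the highest concentration tested.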

Leukemia = experiment: NCI-60 screening (SRB), subpanel; format: cell-based
How it was run: as §1

Melanoma = experiment: NCI-60 screening (SRB), subpanel; format: cell-based
How it was run: as §1

NSC lung cancer = experiment: NCI-60 screening (SRB), subpanel; format: cell-based
How it was run: as §1

Ovarian cancer = experiment: NCI-60 screening (SRB), subpanel; format: cell-based
How it was run: as §1

Prostate cancer = experiment: NCI-60 screening (SRB), subpanel; format: cell-based
How it was run: as §1

Renal Cancer = experiment: NCI-60 screening (SRB), subpanel; format: cell-based
How it was run: as §1

A549/ATCC = experiment: NCI-60 screening (SRB); format: cell-based, human; settings: five-dose
NCI-H226 = experiment: NCI-60 screening (SRB); format: cell-based, human; settings: five-dose
NCI-H322M = experiment: NCI-60 screening (SRB); format: cell-based, human; settings: five-dose
NCI-H460 = experiment: NCI-60 screening (SRB); format: cell-based, human; settings: five-dose
NCI-H522 = experiment: NCI-60 screening (SRB); format: cell-based, human; settings: five-dose
COLO 205 = experiment: NCI-60 screening (SRB); format: cell-based, human; settings: five-dose
HCT-116 = experiment: NCI-60 screening (SRB); format: cell-based, human; settings: five-dose
HT29 = experiment: NCI-60 screening (SRB); format: cell-based, human
KM12 = experiment: NCI-60 screening (SRB); format: cell-based, human; settings: five-dose
SNB-19 = experiment: NCI-60 screening (SRB); format: cell-based, human; settings: five-dose
OVCAR-3 = experiment: NCI-60 screening (SRB); format: cell-based, human; settings: five-dose
NCI/ADR-RES = experiment: NCI-60 screening (SRB); format: cell-based, human; settings: five-dose
786-0 = experiment: NCI-60 screening (SRB); format: cell-based, human; settings: five-dose
ACHN = experiment: NCI-60 screening (SRB); format: cell-based, human; settings: five-dose
MCF7 = experiment: NCI-60 screening (SRB); format: cell-based, human; settings: five-dose
MDA-MB-468 = experiment: NCI-60 screening (SRB); format: cell-based, human; settings: five-dose
[1] = HL-60(TB) (Leukemia), 1 dose 10 µM
[2] = Homo sapiens, read-out: LC50 (the source's name)

CCN1CCN(C(=O)[C@]23CC[C@@H](C)[C@H](C)[C@H]2C2=CC[C@@H]4[C@@]5(C)C/C(=C/c6cccnc6)C(=O)C(C)(C)[C@@H]5CC[C@@]4(C)[C@]2(C)CC3)CC1 [Compound 9, N-(2-{3-Pyridinylidene}-3-oxoursan-12-en-28-oyl)-ethylpiperazine] showed a Growth % (HL-60(TB); [1]) of −38.20%, a cell death (HL-60(TB); [1]) of 38.20% and a TGI (HL-60(TB); HL-60(TB), five-dose) of 8.97 µM. The GI50 (HL-60(TB); Homo sapiens, HL-60(TB), five-dose) was 2.78 µM, the CC50 (HL-60(TB); Homo sapiens, HL-60(TB), five-dose, read-out: LC50 (the source's name)) was > 100 µM and the “TGI MG_MID” value (Breast cancer; Breast cancer subpanel, five-dose) was 5.37 µM. The “SI (TGI)” value (Breast cancer; Breast cancer, MG_MID60/subpanel MG_MID) was 0.98, the GI50 (Breast cancer; Homo sapiens, Breast cancer subpanel, five-dose, read-out: GI50 MG_MID) was 1.91 µM and the CC50 (Breast cancer; Homo sapiens, Breast cancer subpanel, five-dose, read-out: LC50 MG_MID) was 36.9 µM. For the same compound, the “TGI MG_MID” value (Colon Cancer; Colon Cancer subpanel, five-dose) was 4.00 µM, the “SI (TGI)” value (Colon Cancer; Colon Cancer, MG_MID60/subpanel MG_MID) was 1.32 and the GI50 (Colon Cancer; Homo sapiens, Colon Cancer subpanel, five-dose, read-out: GI50 MG_MID) was 1.81 µM. The CC50 (Colon Cancer; Homo sapiens, Colon Cancer subpanel, five-dose, read-out: LC50 MG_MID) was 33.7 µM, the CC50 (Leukemia; Homo sapiens, Leukemia subpanel, five-dose, read-out: LC50 MG_MID) was > 100 µM and the “TGI MG_MID” value (Leukemia; Leukemia subpanel, five-dose) was 7.09 µM. The “SI (TGI)” value (Leukemia; Leukemia, MG_MID60/subpanel MG_MID) was 0.75, the GI50 (Melanoma; Homo sapiens, Melanoma subpanel, five-dose, read-out: GI50 MG_MID) was 1.56 µM and the CC50 (Melanoma; Homo sapiens, Melanoma subpanel, five-dose, read-out: LC50 MG_MID) was 25.1 µM. The “TGI MG_MID” value (Melanoma; Melanoma subpanel, five-dose) was 3.66 µM, the “SI (TGI)” value (Melanoma; Melanoma, MG_MID60/subpanel MG_MID) was 1.45 and the GI50 (NSC lung cancer; Homo sapiens, NSC lung cancer subpanel, five-dose, read-out: GI50 MG_MID) was 2.12 µM. The CC50 (NSC lung cancer; Homo sapiens, NSC lung cancer subpanel, five-dose, read-out: LC50 MG_MID) was 47.1 µM, the “TGI MG_MID” value (NSC lung cancer; NSC lung cancer subpanel, five-dose) was 6.81 µM and the “SI (TGI)” value (NSC lung cancer; NSCL cancer, MG_MID60/subpanel MG_MID) was 0.78. The GI50 (Ovarian cancer; Homo sapiens, Ovarian cancer subpanel, five-dose, read-out: GI50 MG_MID) was 2.04 µM, the CC50 (Ovarian cancer; Homo sapiens, Ovarian cancer subpanel, five-dose, read-out: LC50 MG_MID) was 36.2 µM and the “SI (TGI)” value (Ovarian cancer; Ovarian Cancer, MG_MID60/subpanel MG_MID) was 1.02. For the same compound, the “TGI MG_MID” value (Ovarian cancer; Ovarian cancer subpanel, five-dose) was 5.16 µM, the GI50 (Prostate cancer; Homo sapiens, Prostate cancer subpanel, five-dose, read-out: GI50 MG_MID) was 1.79 µM and the CC50 (Prostate cancer; Homo sapiens, Prostate cancer subpanel, five-dose, read-out: LC50 MG_MID) was 9.23 µM. For the same compound, the “SI (TGI)” value (Prostate cancer; Prostate cancer, MG_MID60/subpanel MG_MID) was 0.89, the GI50 (Renal Cancer; Homo sapiens, Renal cancer subpanel, five-dose, read-out: GI50 MG_MID) was 1.97 µM and the LC50 (50% net cell kill) (Renal Cancer; Homo sapiens, Renal cancer subpanel, five-dose, read-out: LC50 MG_MID) was 21.3 µM. The “SI (TGI)” value (Renal Cancer; Renal Cancer, MG_MID60/subpanel MG_MID) was 0.95, the “TGI MG_MID” value (Renal Cancer; Renal cancer subpanel, five-dose) was 5.57 µM and the GI50 (A549/ATCC; Homo sapiens) was 3.15 µM. For the same compound, the CC50 (A549/ATCC; [2]) was > 100 µM, the TGI (A549/ATCC) was 16.8 µM and the GI50 (NCI-H226; Homo sapiens) was 1.89 µM. For the same compound, the CC50 (NCI-H226; [2]) was 8.78 µM, the TGI (NCI-H226) was 4.07 µM and the GI50 (NCI-H322M; Homo sapiens) was 2.28 µM. For the same compound, the CC50 (NCI-H322M; [2]) was 28.8 µM, the TGI (NCI-H322M) was 8.27 µM and the GI50 (NCI-H460; Homo sapiens) was 1.78 µM. For the same compound, the CC50 (NCI-H460; [2]) was 6.69 µM, the TGI (NCI-H460) was 3.45 µM and the GI50 (NCI-H522; Homo sapiens) was 1.66 µM. The TGI (NCI-H522) was 3.86 µM, the GI50 (COLO 205; Homo sapiens) was 2.19 µM and the CC50 (COLO 205; [2]) was > 100 µM. The TGI (COLO 205) was 5.12 µM, the GI50 (HCT-116; Homo sapiens) was 1.69 µM and the CC50 (HCT-116; [2]) was 7.43 µM. For the same compound, the TGI (HCT-116) was 3.55 µM, the GI50 (HT29; Homo sapiens, HT-29, five-dose) was 1.93 µM and the CC50 (HT29; Homo sapiens, HT-29, five-dose, read-out: LC50 (the source's name)) was > 100 µM. It also gave a TGI (HT29; five-dose) of 5.36 µM, a GI50 (KM12; Homo sapiens) of 1.75 µM and a CC50 (KM12; [2]) of 7.23 µM. The TGI (KM12) was 3.56 µM, the GI50 (SNB-19; Homo sapiens) was 1.79 µM and the CC50 (SNB-19; [2]) was 7.82 µM. For the same compound, the TGI (SNB-19) was 3.74 µM, the GI50 (OVCAR-3; Homo sapiens) was 1.65 µM and the CC50 (OVCAR-3; [2]) was 6.17 µM. The TGI (OVCAR-3) was 3.19 µM, the GI50 (NCI/ADR-RES; Homo sapiens) was 1.59 µM and the CC50 (NCI/ADR-RES; [2]) was 6.91 µM. The TGI (NCI/ADR-RES) was 3.31 µM, the GI50 (786-0; Homo sapiens) was 1.98 µM and the TGI (786-0) was 4.37 µM. The GI50 (ACHN; Homo sapiens) was 2.46 µM, the LC50 (ACHN; Homo sapiens) was 22.6 µM and the TGI (ACHN) was 6.45 µM. It also gave a GI50 (MCF7; Homo sapiens) of 1.64 µM, a CC50 (MCF7; [2]) of 7.14 µM and a TGI (MCF7) of 3.42 µM. For the same compound, the GI50 (MDA-MB-468; Homo sapiens) was 1.65 µM, the CC50 (MDA-MB-468; [2]) was 7.1 µM and the TGI (MDA-MB-468) was 3.43 µM.
